Measured values published in patent publication US11834453B2, “Substituted pyrimido[5,4-d]pyrimidines as HER2 inhibitors” (Array BioPharma Inc., priority 2020, dated 2023).
pIC50: −log10 of the molar value.

Assays:
[1] = biological target: ErbB2 insYVMA (HER2-YVMA, SEQ ID NO: 2) (Homo sapiens, UniProt P04626, INS775YVMA/P1170A); assay: biochemical; settings: ErbB2 insYVMA enzyme assay; read-out: Assay 1 IC50
ErbB2 WT = ErbB2 WT (Homo sapiens (Human), UniProt P04626); assay: ErbB enzyme assay (CisBio HTRF KinEASE-TK), Assay 2; assay type: biochemical
Description: Compound potencies were determined using CisBio's HTRF Kinease-TK assay technology. The kinases were incubated with 250 nM TK-substrate biotin (CisBio, part of cat #62TK0PEC) at 1 mM ATP along with test compounds in a buffer consisting of 25 mM HEPES, pH 7.4, 10 mM MgCl2, 0.01% Triton X-100, and 2% DMSO in a volume of 8 μL. […] After 30-minute incubation at 22° C., the reaction was quenched by adding 8 μL of quench solution containing 62.5 nM Sa-XL665 and 0.25× TK-Ab-Cryptate in HTRF detection buffer (all from CisBio, part of cat #62TK0PEC). After a 1-hour incubation at 22° C., the extent of reaction was determined using a PerkinElmer EnVision multimode plate reader via HTRF dual wavelength detection, and the percent of control (POC) was calculated using a ratiometric emission factor. One hundred POC was determined using DMSO only samples (no compound present), and 0 POC was determined using pre-quenched control reactions.
(§1) Enzyme lots and concentration used are in Table 2.

EGFR = EGFR (Homo sapiens (Human), UniProt P00533); assay: ErbB enzyme assay (CisBio HTRF KinEASE-TK), Assay 3; assay type: biochemical
Description: Compound potencies were determined using CisBio's HTRF Kinease-TK assay technology. The kinases were incubated with 250 nM TK-substrate biotin (CisBio, part of cat #62TK0PEC) at 1 mM ATP along with test compounds in a buffer consisting of 25 mM HEPES, pH 7.4, 10 mM MgCl2, 0.01% Triton X-100, and 2% DMSO in a volume of 8 μL. Compounds were prepared as a three-fold serial dilution in DMSO and added to the assay to give the appropriate final concentration. After 30-minute incubation at 22° C., the reaction was quenched by adding 8 μL of quench solution containing 62.5 nM Sa-XL665 and 0.25× TK-Ab-Cryptate in HTRF detection buffer (all from CisBio, part of cat #62TK0PEC). After a 1-hour incubation at 22° C., the extent of reaction was determined using a PerkinElmer EnVision multimode plate reader via HTRF dual wavelength detection, and the percent of control (POC) was calculated using a ratiometric emission factor. One hundred POC was determined using DMSO only samples (no compound present), and 0 POC was determined using pre-quenched control reactions. A 4-parameter logistic curve was fit to the POC values as a function of the concentration of compound, and the IC50 value was the point where the best-fit curve crossed 50 POC.
as §1

[2] = biological target: ErbB2 with Exon 20 YVMA insertion (HER2-YVMA) (Homo sapiens (Human), UniProt P04626, INS775YVMA); assay: Cellular phosphorylation assay, constitutive ErbB2 phosphorylation (Y1196) in engineered NIH 3T3 cells, Assay 4; assay type: cell-based
Description: Serially diluted compounds were added to the plates for 1 hour at 37° C./5% CO2. EGFR WT cells were stimulated with 100 ng/ml rEGF for an additional 10 minutes at 37° C./5% CO2. After compound incubation, medium was removed from the cells, which were then fixed in 3.7% formaldehyde in PBS at room temperature for 20 minutes. Following a wash with PBS, cells were permeabilized with 100% methanol at room temperature for 10 minutes. Cells were then washed with PBS/0.05% Tween-20 and blocked with Odyssey blocking buffer (LI-COR Biosciences) for at least 1 hour at room temperature. Antibodies to phosphorylated ErbB2 (Y1196, Cell Signaling #6942) or phosphorylated EGFR (Y1068, Cell Signaling #3777) and GAPDH (Millipore #MAB374) were added to the cells in blocking buffer containing 0.05% azide and incubated overnight at 4° C. After washing with PBS/0.05° i° Tween-20, the cells were incubated with fluorescently labeled secondary anti-rabbit antibody (LiCOR, IRDye 800CW #926-32211) and anti-mouse antibody (Molecular Probes, Alexa Fluor 680 #A21058) for 1 hour at room temperature in the dark. Cells were then washed and analyzed for fluorescence at both wavelengths using the Odyssey Infrared Imaging System (LI-COR Biosciences). Phosphorylated ErbB2 and EGFR signal was normalized to GAPDH signal to generate curves and calculate IC50 values.

Sequence of ErbB2 WT (P04626 23-1255): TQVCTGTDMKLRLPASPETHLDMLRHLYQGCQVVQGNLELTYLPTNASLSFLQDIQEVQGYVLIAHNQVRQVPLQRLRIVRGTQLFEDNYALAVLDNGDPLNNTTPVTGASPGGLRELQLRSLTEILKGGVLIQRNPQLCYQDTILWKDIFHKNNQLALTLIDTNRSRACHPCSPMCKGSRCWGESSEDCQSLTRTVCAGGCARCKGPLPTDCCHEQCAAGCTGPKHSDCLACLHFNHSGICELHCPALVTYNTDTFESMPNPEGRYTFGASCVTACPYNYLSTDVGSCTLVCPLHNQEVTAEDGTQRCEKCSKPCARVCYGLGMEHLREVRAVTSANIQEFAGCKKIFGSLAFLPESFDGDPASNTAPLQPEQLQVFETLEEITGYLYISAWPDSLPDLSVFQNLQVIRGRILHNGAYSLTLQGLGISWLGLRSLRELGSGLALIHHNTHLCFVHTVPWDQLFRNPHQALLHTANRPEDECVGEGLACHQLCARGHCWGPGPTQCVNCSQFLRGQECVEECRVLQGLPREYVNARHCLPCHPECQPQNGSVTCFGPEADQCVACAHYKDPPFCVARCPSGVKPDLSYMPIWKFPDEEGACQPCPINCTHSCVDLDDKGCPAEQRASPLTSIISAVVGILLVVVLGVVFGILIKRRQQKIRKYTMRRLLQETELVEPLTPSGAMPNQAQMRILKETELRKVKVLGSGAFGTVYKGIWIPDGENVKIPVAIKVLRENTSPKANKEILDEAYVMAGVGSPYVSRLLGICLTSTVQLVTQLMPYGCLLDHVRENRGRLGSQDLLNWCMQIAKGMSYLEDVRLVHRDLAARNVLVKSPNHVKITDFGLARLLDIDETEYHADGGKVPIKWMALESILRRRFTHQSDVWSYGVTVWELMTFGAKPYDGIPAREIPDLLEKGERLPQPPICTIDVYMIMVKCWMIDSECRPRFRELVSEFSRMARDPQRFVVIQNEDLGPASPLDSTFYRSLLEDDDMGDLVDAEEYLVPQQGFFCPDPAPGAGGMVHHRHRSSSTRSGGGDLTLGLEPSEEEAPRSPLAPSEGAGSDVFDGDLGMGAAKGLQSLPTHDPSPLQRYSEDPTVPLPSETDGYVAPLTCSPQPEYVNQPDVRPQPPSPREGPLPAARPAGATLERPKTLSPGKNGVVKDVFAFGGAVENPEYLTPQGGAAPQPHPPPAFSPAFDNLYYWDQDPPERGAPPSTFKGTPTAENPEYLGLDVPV
Sequence of ErbB2 with Exon 20 YVMA insertion (HER2-YVMA) (P04626 other isoform, or with tags, fused parts or gaps ins YVMA behind 775): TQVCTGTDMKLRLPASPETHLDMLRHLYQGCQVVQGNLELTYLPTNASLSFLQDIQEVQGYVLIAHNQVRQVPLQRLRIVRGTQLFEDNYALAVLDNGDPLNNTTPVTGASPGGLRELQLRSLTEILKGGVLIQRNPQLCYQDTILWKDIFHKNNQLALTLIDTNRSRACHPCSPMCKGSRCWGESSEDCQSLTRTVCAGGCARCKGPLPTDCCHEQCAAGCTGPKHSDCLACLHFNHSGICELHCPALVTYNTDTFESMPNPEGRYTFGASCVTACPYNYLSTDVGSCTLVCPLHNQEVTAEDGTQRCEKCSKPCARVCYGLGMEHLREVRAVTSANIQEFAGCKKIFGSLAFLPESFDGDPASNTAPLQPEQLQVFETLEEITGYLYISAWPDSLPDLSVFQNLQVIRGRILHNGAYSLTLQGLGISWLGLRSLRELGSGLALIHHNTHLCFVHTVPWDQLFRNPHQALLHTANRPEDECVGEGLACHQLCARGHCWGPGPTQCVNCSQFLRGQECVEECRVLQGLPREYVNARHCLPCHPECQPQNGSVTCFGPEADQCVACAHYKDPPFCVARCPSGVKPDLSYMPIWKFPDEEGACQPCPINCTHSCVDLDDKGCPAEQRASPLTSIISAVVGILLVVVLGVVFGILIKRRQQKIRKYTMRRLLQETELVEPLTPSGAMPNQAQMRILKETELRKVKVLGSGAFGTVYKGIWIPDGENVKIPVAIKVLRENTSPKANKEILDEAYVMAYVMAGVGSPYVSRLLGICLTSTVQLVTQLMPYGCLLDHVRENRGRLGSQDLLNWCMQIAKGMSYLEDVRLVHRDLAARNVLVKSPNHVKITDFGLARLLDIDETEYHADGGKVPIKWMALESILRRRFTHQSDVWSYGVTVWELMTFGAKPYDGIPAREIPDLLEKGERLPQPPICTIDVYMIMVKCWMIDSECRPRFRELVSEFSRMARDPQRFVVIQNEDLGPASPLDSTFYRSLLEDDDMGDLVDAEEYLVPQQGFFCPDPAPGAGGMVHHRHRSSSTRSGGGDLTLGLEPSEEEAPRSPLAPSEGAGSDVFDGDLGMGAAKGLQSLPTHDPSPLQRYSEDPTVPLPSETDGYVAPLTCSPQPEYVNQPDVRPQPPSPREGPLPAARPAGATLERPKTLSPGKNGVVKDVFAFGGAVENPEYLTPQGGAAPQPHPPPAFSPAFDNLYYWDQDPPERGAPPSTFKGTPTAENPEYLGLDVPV
Sequence of EGFR (P00533 25-1210): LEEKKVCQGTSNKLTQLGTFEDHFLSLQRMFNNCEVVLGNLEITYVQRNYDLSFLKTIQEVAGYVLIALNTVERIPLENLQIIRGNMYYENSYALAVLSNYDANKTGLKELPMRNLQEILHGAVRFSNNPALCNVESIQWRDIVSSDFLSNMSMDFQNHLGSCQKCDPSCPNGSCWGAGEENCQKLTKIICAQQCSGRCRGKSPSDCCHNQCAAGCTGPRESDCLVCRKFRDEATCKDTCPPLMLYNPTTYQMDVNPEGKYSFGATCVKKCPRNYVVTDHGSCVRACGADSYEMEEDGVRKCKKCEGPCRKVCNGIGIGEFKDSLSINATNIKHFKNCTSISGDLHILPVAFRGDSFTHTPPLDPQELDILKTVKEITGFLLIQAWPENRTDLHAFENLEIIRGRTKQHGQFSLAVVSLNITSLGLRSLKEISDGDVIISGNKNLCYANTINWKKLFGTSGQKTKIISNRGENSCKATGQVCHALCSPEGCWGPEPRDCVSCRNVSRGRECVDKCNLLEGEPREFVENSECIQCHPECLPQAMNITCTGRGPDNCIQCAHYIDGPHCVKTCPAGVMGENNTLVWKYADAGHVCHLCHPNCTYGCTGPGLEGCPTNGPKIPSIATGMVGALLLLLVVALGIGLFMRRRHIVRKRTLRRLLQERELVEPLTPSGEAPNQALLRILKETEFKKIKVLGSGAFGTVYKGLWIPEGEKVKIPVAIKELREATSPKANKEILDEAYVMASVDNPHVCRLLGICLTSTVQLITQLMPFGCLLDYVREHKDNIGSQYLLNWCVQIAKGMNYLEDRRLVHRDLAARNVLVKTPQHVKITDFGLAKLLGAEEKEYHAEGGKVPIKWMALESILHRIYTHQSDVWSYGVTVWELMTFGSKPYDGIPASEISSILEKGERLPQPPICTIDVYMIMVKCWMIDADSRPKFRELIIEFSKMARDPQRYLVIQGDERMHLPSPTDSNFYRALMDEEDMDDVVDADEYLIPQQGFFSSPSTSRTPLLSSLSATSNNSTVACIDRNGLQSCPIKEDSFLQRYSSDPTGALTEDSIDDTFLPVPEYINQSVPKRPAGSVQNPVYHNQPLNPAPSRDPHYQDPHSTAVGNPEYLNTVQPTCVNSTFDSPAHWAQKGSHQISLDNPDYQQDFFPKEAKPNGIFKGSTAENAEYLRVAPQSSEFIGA
Sequence of ErbB2 insYVMA (HER2-YVMA, SEQ ID NO: 2) (P04626 with tags, fused parts or gaps INS775YVMA/P1170A limits assumed): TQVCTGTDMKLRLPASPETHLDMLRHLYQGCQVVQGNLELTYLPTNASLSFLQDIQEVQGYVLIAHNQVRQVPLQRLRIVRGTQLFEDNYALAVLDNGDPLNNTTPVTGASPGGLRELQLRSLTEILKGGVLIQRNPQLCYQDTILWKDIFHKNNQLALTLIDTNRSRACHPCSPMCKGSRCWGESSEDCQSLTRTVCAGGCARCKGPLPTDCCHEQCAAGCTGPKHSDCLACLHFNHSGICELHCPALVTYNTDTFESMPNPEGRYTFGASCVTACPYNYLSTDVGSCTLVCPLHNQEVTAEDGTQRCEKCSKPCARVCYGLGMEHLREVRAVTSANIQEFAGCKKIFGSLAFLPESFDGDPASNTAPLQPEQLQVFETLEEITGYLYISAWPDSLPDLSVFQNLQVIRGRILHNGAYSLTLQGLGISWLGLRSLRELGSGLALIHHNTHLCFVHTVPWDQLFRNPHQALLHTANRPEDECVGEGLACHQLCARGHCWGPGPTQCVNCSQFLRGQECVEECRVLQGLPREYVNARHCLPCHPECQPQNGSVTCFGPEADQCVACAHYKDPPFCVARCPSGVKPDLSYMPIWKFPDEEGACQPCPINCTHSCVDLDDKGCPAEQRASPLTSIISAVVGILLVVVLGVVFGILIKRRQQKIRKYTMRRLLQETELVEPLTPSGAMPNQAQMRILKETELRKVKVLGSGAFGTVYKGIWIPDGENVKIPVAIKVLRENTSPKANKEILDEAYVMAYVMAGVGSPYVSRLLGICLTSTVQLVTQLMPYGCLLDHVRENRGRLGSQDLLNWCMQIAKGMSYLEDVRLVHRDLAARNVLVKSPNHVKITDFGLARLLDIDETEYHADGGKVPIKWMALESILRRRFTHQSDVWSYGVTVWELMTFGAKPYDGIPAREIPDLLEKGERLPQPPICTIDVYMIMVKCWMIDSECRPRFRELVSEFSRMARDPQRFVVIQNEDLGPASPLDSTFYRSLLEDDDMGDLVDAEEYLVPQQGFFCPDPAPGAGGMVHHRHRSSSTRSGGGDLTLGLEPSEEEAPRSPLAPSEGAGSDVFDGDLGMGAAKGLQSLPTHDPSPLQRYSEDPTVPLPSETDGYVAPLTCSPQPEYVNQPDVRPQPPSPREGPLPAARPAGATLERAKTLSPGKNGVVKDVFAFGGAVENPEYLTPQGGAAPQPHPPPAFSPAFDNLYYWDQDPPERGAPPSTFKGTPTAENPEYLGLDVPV

## CO[C@H]1CCCN(c2ncc3ncnc(Nc4ccc(Oc5ccc6c(c5)ncn6C)c(C)c4)c3n2)C1 [Example 248]
[1]
  pIC50: 7.24
ErbB2 WT
  pIC50: 6.91
EGFR
  pIC50: ≤ 5.00
[2]
  pIC50: 7.18

## Cc1c(Oc2ccc3c(c2)ncn3C)ccc(Nc2ncnc3cnc(N4CC5CC4CO5)nc23)c1F (centres unmarked) [Example 454]
[1]
  pIC50: 7.82
ErbB2 WT
  pIC50: 7.32
EGFR
  pIC50: 5.39
[2]
  pIC50: 7.26

## Cc1cc(Nc2ncnc3cnc(N4CC[C@H]4C(C)(C)O)nc23)ccc1Oc1ccc2c(c1)ncn2C [Example 407]
[1]
  pIC50: 7.50
ErbB2 WT
  pIC50: 6.93
EGFR
  pIC50: ≤ 5.00
[2]
  pIC50: 7.08

## Cc1cnc(-c2ncc3ncnc(Nc4ccc(Oc5ccc6c(c5)ncn6C)c(C)c4)c3n2)s1 [Example 41, N-(3-methyl-4-((1-methyl-1H-benzo[d]imidazol-5-yl)oxy)phenyl)-6-(5-methylthiazol-2-yl)pyrimido[5,4-d]pyrimidin-4-amine]
[1]
  pIC50: 6.71
ErbB2 WT
  pIC50: 6.63
EGFR
  pIC50: ≤ 5.00
[2]
  pIC50: 7.28

## Cc1cc(Nc2ncnc3cnc(N(C)Cc4ccccc4)nc23)ccc1Oc1ccc2c(c1)ncn2C [Example 331]
[1]
  pIC50: 6.39
ErbB2 WT
  pIC50: 6.41
EGFR
  pIC50: ≤ 5.00

## Cc1cc(Nc2ncnc3cnc(N4CC[C@@H]4C(C)(C)O)nc23)ccc1Oc1ccc2c(c1)ncn2C [Example 397]
[1]
  pIC50: 7.69
ErbB2 WT
  pIC50: 6.84
EGFR
  pIC50: ≤ 5.00
[2]
  pIC50: 6.94

## Cc1cc(Nc2ncnc3cnc(N4CCC[C@H]4C(F)F)nc23)ccc1Oc1ccc2c(c1)ncn2C [Example 55, (S)-6-(2-(difluoromethyl)pyrrolidin-1-yl)-N-(3-methyl-4-((1-methyl-1H-benzo[d]imidazol-5-yl)oxy)phenyl)pyrimido[5,4-d]pyrimidin-4-amine]
[1]
  pIC50: 6.96
ErbB2 WT
  pIC50: 6.58
EGFR
  pIC50: ≤ 5.00
[2]
  pIC50: 7.01

## Cc1cc(Nc2ncnc3cnc(N4CCCCC4)nc23)ccc1Oc1ccc2c(c1)ncn2C [Example 242]
[1]
  pIC50: 6.95
ErbB2 WT
  pIC50: 6.89
EGFR
  pIC50: ≤ 5.00
[2]
  pIC50: 7.12

## Cc1cc(Nc2ncnc3cnc(N4CCC[C@@H]4C(F)F)nc23)ccc1Oc1ccc2c(c1)ncn2C [Example 56, (R)-6-(2-(difluoromethyl)pyrrolidin-1-yl)-N-(3-methyl-4-((1-methyl-1H-benzo[d]imidazol-5-yl)oxy)phenyl)pyrimido[5,4-d]pyrimidin-4-amine]
[1]
  pIC50: 6.69
ErbB2 WT
  pIC50: 6.39
EGFR
  pIC50: ≤ 5.00
[2]
  pIC50: 6.98

## Cc1cc(Nc2ncnc3cnc(N4CC5CC(C4)N5C)nc23)ccc1Oc1ccc2c(c1)ncn2C [Example 33, N-(3-methyl-4-((1-methyl-1H-benzo[d]imidazol-5-yl)oxy)phenyl)-6-(6-methyl-3,6-diazabicyclo[3.1.1]heptan-3-yl)pyrimido[5,4-d]pyrimidin-4-amine]
[1]
  pIC50: 7.00
ErbB2 WT
  pIC50: 6.43
EGFR
  pIC50: ≤ 5.00
[2]
  pIC50: 6.23

## Cc1c(Oc2ccn3ncnc3c2)ccc(Nc2ncnc3cnc(N4C[C@@H]5CC4CO5)nc23)c1F [Example 313]
[1]
  pIC50: 7.67
ErbB2 WT
  pIC50: 7.39

## Cc1cc(Nc2ncnc3cnc(N(C)c4cnn(C)c4)nc23)ccc1Oc1ccc2c(c1)ncn2C [Example 108, N2-methyl-N2-(1-methyl-1H-pyrazol-4-yl)-N8-(3-methyl-4-((1-methyl-1H-benzo[d]imidazol-5-yl)oxy)phenyl)pyrimido[5,4-d]pyrimidine-2,8-diamine]
[1]
  pIC50: 7.42
ErbB2 WT
  pIC50: 7.41
EGFR
  pIC50: 5.37

## Cc1cc(Nc2ncnc3cnc(O[C@@H]4CNC[C@@H]4F)nc23)ccc1Oc1ccc2c(c1)ncn2C [Example 86, 6-(((3R,4S)-4-fluoropyrrolidin-3-yl)oxy)-N-(3-methyl-4-((1-methyl-1H-benzo[d]imidazol-5-yl)oxy)phenyl)pyrimido[5,4-d]pyrimidin-4-amine]
ErbB2 WT
  pIC50: 6.52
EGFR
  pIC50: ≤ 5.00
[2]
  pIC50: 6.58

## Cc1cc(Nc2ncnc3cnc(N4CCN(C)[C@H](C)C4)nc23)ccc1Oc1ccc2c(c1)ncn2C [Example 490]
EGFR
  pIC50: ≤ 5.00

## Cc1cc(Nc2ncnc3cnc(N(C)C4CCCOC4)nc23)ccc1Oc1ccc2c(c1)ncn2C (centres unmarked) [Example 473]
[1]
  pIC50: 7.67
ErbB2 WT
  pIC50: 7.70
